We go through 44 molecules from patent US7511041B2, “Fused azole-pyrimidine derivatives” (Bayer Pharmaceuticals Corporation, priority 2002, dated 2009).

Counter-ions that a name gives are not always drawn. Like-named read-outs stand apart in the source and are kept apart here.

Data set [1] addresses T1, Recombinant human PI3Kγ (full length human PI3K p110γ) (Homo sapiens, UniProt P48736).
T1 construct: full length human PI3K p110γ fused with a His6-tag at the C-terminus; His6 (C); purchased ALEXIS BIOCHEMICALS #201-055-C010; host or cells: S. frugiperda 9 insect cells
In words: Kinase assay of PI3Kγ (solid-phase lipid kinase assay). It is filed as biochemical.

Data set [2] deals with PI3Kβ (heterocomplex of p110β and GST-p85α) (UniProt Q9Z1L0). Kind of data set: Isozyme selectivity test: kinase assay of PI3Kβ. It is filed as biochemical. As to conditions: activity class of IC50, read-out: In vitro PI3K-β inhibitory activity. How it is done: [Isozyme Selectivity Test in PI3K]
{Determination of IC50 Values of Compounds in Kinase Assay of PI3Kβ}
Recombinant baculovirus of PI3Kβ p110β and GST-p85α were obtained from Dr. Katada (University of Tokyo). Recombinant PI3K heterocomplex of p110β and GST-p85α were co-expressed in insect cells according to manufacture's instruction (Pharmingen, San Diego, Calif.), and purified with glutathione affinity column. Kinase assay of PI3Kβ was prepared in a similar manner as described in the part of [Determination of IC50 values of compounds in kinase assay of PI3Kγ].

[3] abbreviates: activity class of IC50, read-out: In vitro PI3K-γ inhibitory activity.
Setting [4] is: in vitro PI3K-γ inhibitory activity, class symbols A-D, read-out: in vitro PI3K-gamma.

T1 sequence (P48736 whole entry, the tested form may be a part): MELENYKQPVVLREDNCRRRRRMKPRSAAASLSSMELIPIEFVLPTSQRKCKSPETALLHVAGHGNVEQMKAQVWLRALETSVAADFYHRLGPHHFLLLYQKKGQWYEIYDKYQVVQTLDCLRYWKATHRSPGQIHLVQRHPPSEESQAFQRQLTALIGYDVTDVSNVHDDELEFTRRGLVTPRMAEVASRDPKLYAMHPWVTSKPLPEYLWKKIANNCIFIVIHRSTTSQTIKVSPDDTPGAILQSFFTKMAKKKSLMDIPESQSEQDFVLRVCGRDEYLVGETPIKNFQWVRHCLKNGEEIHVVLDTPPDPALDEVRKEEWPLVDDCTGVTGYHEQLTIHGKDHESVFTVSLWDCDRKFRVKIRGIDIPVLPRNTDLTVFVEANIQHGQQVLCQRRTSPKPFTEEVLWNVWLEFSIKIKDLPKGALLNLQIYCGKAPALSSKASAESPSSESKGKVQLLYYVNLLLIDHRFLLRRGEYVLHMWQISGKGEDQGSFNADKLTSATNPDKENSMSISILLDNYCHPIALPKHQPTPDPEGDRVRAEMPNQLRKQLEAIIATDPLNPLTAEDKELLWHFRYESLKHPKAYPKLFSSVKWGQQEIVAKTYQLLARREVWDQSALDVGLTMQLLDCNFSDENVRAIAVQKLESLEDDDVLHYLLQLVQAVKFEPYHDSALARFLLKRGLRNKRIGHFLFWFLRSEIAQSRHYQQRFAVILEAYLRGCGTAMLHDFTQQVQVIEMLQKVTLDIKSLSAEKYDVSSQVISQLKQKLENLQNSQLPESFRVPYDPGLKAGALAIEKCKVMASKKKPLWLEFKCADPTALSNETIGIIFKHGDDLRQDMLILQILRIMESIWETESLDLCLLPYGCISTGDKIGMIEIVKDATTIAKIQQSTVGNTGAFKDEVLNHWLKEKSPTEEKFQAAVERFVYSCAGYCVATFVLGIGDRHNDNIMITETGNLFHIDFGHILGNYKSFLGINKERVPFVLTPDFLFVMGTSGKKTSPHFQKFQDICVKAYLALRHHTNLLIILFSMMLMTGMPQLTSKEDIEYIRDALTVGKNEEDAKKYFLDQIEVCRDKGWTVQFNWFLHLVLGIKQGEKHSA

For the molecule `COc1cc2c(cc1OC)C1=NCCN1C(/C=C(\O)c1cccnc1)=N2` [Example 1-1, (Z)-2-(8,9-Dimethoxy-2,3-dihydroimidazo[1,2-c]quinazolin-5-yl)-1-(3-pyridinyl)ethenol], the melting point amounted to 275 °C. Besides, the IC50 in data set [1] (setting [3]) is below 100 nM. Besides, the IC50 in data set [2] was in the range of 500 to 2000 nM.
Turning to `COc1c(O)ccc2c1N=C(/C=C(\O)c1cccnc1)N1CCN=C21` [Example 1-4, 5-(2-Hydroxy-2-pyridin-3-ylvinyl)-7-methoxy-2,3-dihydroimidazo[1,2-c]quinazolin-8-ol hydrochloride], the IC50 was below 100 nM in data set [1] (setting [3]) and 500 to 2000 nM in data set [2].
Molecule `COC(=O)CCCOc1ccc2c(c1OC)N=C(/C=C(\O)c1cccnc1)N1CCN=C21` [Example 1-5, Methyl 4-{[5-(2-hydroxy-2-pyridin-3-ylvinyl)-7-methoxy-2,3-dihydroimidazo[1,2-c]quinazolin-8-yl]oxy}butanoate] came in with a melting point of 199 to 200 °C. In addition, in data set [1] (setting [3]), the IC50 is below 100 nM. The IC50 in data set [2] fell in the range of 500 to 2000 nM.
As to `COc1c(OCCCC(=O)O)ccc2c1N=C(/C=C(\O)c1cccnc1)N1CCN=C21` [Example 1-6, 4-{[5-(2-Hydroxy-2-pyridin-3-ylvinyl)-7-methoxy-2,3-dihydroimidazo[1,2-c]quinazolin-8-yl]oxy}butanoic acid], the IC50 is below 100 nM in data set [1] (setting [3]) and 100 to 500 nM in data set [2].
`COc1c(OCCCC(=O)N2CCOCC2)ccc2c1N=C(/C=C(\O)c1cccnc1)N1CCN=C21` [Example 1-8, 2-[7-Methoxy-8-(4-morpholin-4-yl-4-oxobutoxy)-2,3-dihydroimidazo[1,2-c]quinazolin-5-yl]-1-pyridin-3-ylethylenol] showed a melting point of 234 to 235 °C. For the same molecule, in data set [1] (setting [3]), the IC50 is below 100 nM. In addition, the IC50 in data set [2] was 100 to 500 nM.
The like results for `O=C(NC1=Nc2ccccc2C2=NCCN12)c1cccnc1` [Example 2-1, N-(2,3-Dihydroimidazo[1,2-c]quinazolin-5-yl)nicotinamide] were, in that order, 238 to 239 °C (dec.), below 100 nM and 100 to 500 nM.
Turning to `CC(=O)Nc1ccc(C(=O)NC2=Nc3cc(N4CCOCC4)ccc3C3=NCCN23)cn1` [Example 2-3, 6-(Acetamido)-N-[8-(morpholin-4-yl)-2,3-dihydroimidazo[1,2-c]quinazolin-5-yl]nicotinamide], the IC50 was below 100 nM in data set [1] (setting [3]) and 500 to 2000 nM in data set [2].
Regarding `CC(=O)Nc1ccc(C(=O)NC2=Nc3cc(N4CCOCC4)ccc3C3=NCCN23)cn1` [Example 2-4, 6-(Acetamido)-N-[8-(morpholin-4-yl)-2,3-dihydroimidazo[1,2-c]quinazolin-5-yl]nicotinamide hydrochloride], the IC50 in data set [2] (hydrochloride) was 100 to 500 nM.
`O=C(NC1=Nc2cc(O)ccc2C2=NCCN12)c1cccnc1` [Example 2-5, N-(8-Hydroxy-2,3-dihydroimidazo[1,2-c]quinazolin-5-yl)nicotinamide] registered a melting point of 289 °C. Also, in data set [1] (setting [3]), the IC50 fell in the range of 100 to 500 nM. Moreover, the IC50 in data set [2] lay within 500 to 2000 nM.
As for `CC(C)(C)C(=O)NC1=Nc2ccccc2C2=NCCN12` [Example 2-331], the melting point fell in the range of 135 to 136 °C. Also, in data set [1] (setting [4]), the IC50 was above 2000 nM.
The like results for `O=C(NC1=Nc2ccccc2C2=NCCN12)C(Cl)(Cl)Cl` [Example 2-332] were, in that order, 194 °C (dec.) and 500 to 2000 nM.
As to `O=C(NC1=Nc2ccccc2C2=NCCN12)C(F)(F)C(F)(F)F` [Example 2-333], the melting point lay in the range of 210 to 211 °C. Moreover, the IC50 in data set [1] (setting [4]) is above 2000 nM.
Take `O=C(NC1=Nc2ccccc2C2=NCCN12)C1CC1` [Example 2-334]: the melting point lay in the range of 164 to 165 °C. In addition, in data set [1] (setting [4]), the IC50 is above 2000 nM.
For `O=C(NC1=Nc2ccccc2C2=NCCN12)C1CCCCC1` [Example 2-335], in that order: 170 to 172 °C and above 2000 nM.
The like results for `O=C(NC1=Nc2ccccc2C2=NCCN12)C1CCCCN1C(=O)OCc1ccccc1` (centres unmarked) [Example 2-337] were, in that order, 119 to 120 °C and above 2000 nM.
`CC(C)(C)OC(=O)N1CCCC(C(=O)NC2=Nc3ccccc3C3=NCCN23)C1` (centres unmarked) [Example 2-338]: the melting point is 147 to 148 °C. Besides, the IC50 in data set [1] (setting [4]) is above 2000 nM.
The like results for `O=C(NC1=Nc2ccccc2C2=NCCN12)C1CCNCC1` [Example 2-339] were, in that order, 179 to 180 °C and above 2000 nM.
For `O=C(NC1=Nc2ccccc2C2=NCCN12)C1CCN(C(=O)OCc2ccccc2)CC1` [Example 2-341], in that order: 111 to 112 °C and above 2000 nM.
The like results for `COc1cc2c(cc1OC)C1=NCCN1C(NC(C)=O)=N2` [Example 2-343] were, in that order, 240 to 241 °C and above 2000 nM.
On to `CCC(=O)NC1=Nc2cc(OC)c(OC)cc2C2=NCCN12` [Example 2-344], for which the melting point was 224 to 225 °C. In addition, the IC50 in data set [1] (setting [4]) was above 2000 nM.
The like results for `CN(C)c1ccc2c(c1)C1=NCCN1C(NC(=O)c1cccnc1)=N2` [Example 2-345] were, in that order, 269 °C and 500 to 2000 nM.
The like results for `CN(C)c1ccc2c(c1)C1=NCCN1C(NC(=O)c1cccs1)=N2` [Example 2-346] were, in that order, 272 °C and above 2000 nM.
For `O=C(NC1=Nc2ccc(N3CCOCC3)cc2C2=NCCN12)c1cccnc1` [Example 2-347], in that order: 244 °C and above 2000 nM.
The molecule `O=C(NC1=Nc2ccc(N3CCOCC3)cc2C2=NCCN12)c1cccs1` [Example 2-348] had a melting point of 124 °C. Also, the IC50 in data set [1] (setting [4]) is above 2000 nM.
The molecule `O=C(NC1=Nc2cc(C(F)(F)F)ccc2C2=NCCN12)c1cccs1` [Example 2-349] yielded a melting point of 226 °C. For the same molecule, the IC50 in data set [1] (setting [4]) fell in the range of 100 to 500 nM.
The like results for `Cl.O=C(NC1=Nc2cc(C(F)(F)F)ccc2C2=NCCN12)c1cccs1` [Example 2-350] were, in that order, 292 °C and 500 to 2000 nM.
For `O=C(NC1=Nc2ccc(Br)cc2C2=NCCN12)c1cccs1` [Example 2-351], in that order: 232 °C and above 2000 nM.
`Cl.O=C(NC1=Nc2ccc(Br)cc2C2=NCCN12)c1cccs1` [Example 2-352] displayed a melting point of 275 °C. The IC50 in data set [1] (setting [4]) lay within 500 to 2000 nM.
The molecule `O=C(NC1=Nc2cc(Cl)ccc2C2=NCCN12)c1cccnc1` [Example 2-353] yielded a melting point of 254 °C. In data set [1] (setting [4]), the IC50 is 100 to 500 nM.
The like results for `O=C(NC1=Nc2cc(Cl)ccc2C2=NCCN12)c1cccs1` [Example 2-354] were, in that order, 228 °C and 500 to 2000 nM.
Regarding `O=C(NC1=Nc2ccc(Cl)cc2C2=NCCN12)c1cccs1` [Example 2-355], the melting point was 174 °C. The IC50 in data set [1] (setting [4]) was in the range of 500 to 2000 nM.
The like results for `Cl.O=C(NC1=Nc2ccc(Cl)cc2C2=NCCN12)c1cccs1` [Example 2-356] were, in that order, 276 °C and 100 to 500 nM.
The like results for `O=C(NC1=Nc2cccc(Cl)c2C2=NCCN12)c1cccnc1` [Example 2-357] were, in that order, 243 °C and 500 to 2000 nM.
The like results for `O=C(NC1=Nc2cccc(Cl)c2C2=NCCN12)c1cccs1` [Example 2-358] were, in that order, 233 °C and above 2000 nM.
Molecule `Cl.O=C(NC1=Nc2cccc(Cl)c2C2=NCCN12)c1cccs1` [Example 2-359] returned a melting point of 227 °C. In addition, the IC50 in data set [1] (setting [4]) lay in the range of 500 to 2000 nM.
The like results for `O=C(NC1=Nc2ccc(F)cc2C2=NCCN12)c1cccnc1` [Example 2-360] were, in that order, 242 °C and 500 to 2000 nM.
For `O=C(NC1=Nc2ccc([N+](=O)[O-])cc2C2=NCCN12)c1cccnc1.O=C(O)C(F)(F)F` [Example 2-362], in that order: 224 °C and 500 to 2000 nM.
For `C[C@H]1CN2C(NC(=O)c3cccnc3)=Nc3ccccc3C2=N1.Cl` [Example 2-363], in that order: 204 °C (dec.) and above 2000 nM.
For the molecule `CCC(C)[C@H]1CN2C(NC(=O)c3cccnc3)=Nc3ccccc3C2=N1.Cl` (some centres unmarked) [Example 2-364], the melting point lay within 230 to 240 °C. Further, in data set [1] (setting [4]), the IC50 is above 2000 nM.
For `Cl.NC(=O)C1CN2C(NC(=O)c3cccnc3)=Nc3ccccc3C2=N1` (centres unmarked) [Example 2-365], in that order: 274 °C (dec.) and above 2000 nM.
For `C[C@@H]1CN=C2c3ccccc3N=C(NC(=O)c3cccnc3)N21.Cl` [Example 2-366], in that order: 270 °C (dec.) and above 2000 nM.
For `COc1ccc2c(c1OC)N=C(NC(=O)c1cncc(O)c1)N1CCN=C21.Cl` [Example 2-368], in that order: 240 °C (dec.) and below 100 nM.
`O/C(=C\c1nc2ccccc2c2nccn12)c1cccs1` [Example 3-1, (Z)-2-Imidazo[1,2-c]quinazolin-5-yl-1-(2-thienyl)ethenol]: the melting point came out at 128 °C. The IC50 in data set [1] (setting [3]) is above 2000 nM.
For `O=C(Nc1nc2ccccc2c2nccn12)c1cccnc1` [Example 4-1, N-Imidazo[1,2-c]quinazolin-5-ylnicotinamide], in that order: 223 to 224 °C (dec.) and 500 to 2000 nM.
